Data on three compounds can be found in ChEMBL document CHEMBL4118071, “Discovery of unsymmetrical aromatic disulfides as novel inhibitors of SARS-CoV main protease: Chemical synthesis, biological evaluation, molecular docking and 3D-QSAR study” (Eur J Med Chem, 2017).

Broadly, the pKi is the Ki on a negative log10 scale, so that one unit is a factor of ten.

In experiment [1] the test system is Severe acute respiratory syndrome-related coronavirus.
Experiment [2] has the same test system. The note with it: 2 to 4 uM.
A short description of experiment [3]: Inhibition of SARS coronavirus Mpro using MCA-AVLQSGFR-Lys(Dnp)-Lys-NH as substrate by fluorescence assay. More on the design: species or system Severe acute respiratory syndrome-related coronavirus.

SMILES strings stand for the structures. pKi: −log10 of the molar value. Activity calls are given as the source filed them. The rule behind the calls is not given here.

`Clc1ccc(SSc2nnco2)cc1` gave an alphaKi in experiment [1] of 0.2 µM. For `Brc1ccc(SSc2ncccn2)cc1`, in experiment [2], the inhibition result is “Active”. Turning to `CCOC(=O)/C=C/[C@H](C[C@@H]1CCNC1=O)NC(=O)[C@H](CCC(C)C)NC(=O)[C@@H](NC(=O)[C@@H](NC(=O)c1ccco1)C(C)C)C(C)C`, the pKi in experiment [3] was 5.17.
